Results: publication PMC6522510 (Nature Communications, 2019)
Structures can show the parent of a compound that is named as a salt. Where two headings read alike, the source gives them in different places.

How the values were obtained:
Design in all cases: species or system AML cell lines (8); Primary HTS, single concentration about 10 uM, Cell Titer Glo viability; log10 luminescence, per cent inhibition relative to cycloheximide control
Conditions in all cases: 72 h, relative to cycloheximide control, log10 luminescence, inhibitor
U937 = tested on: U937
CMS = tested on: CMS
CMK = tested on: CMK
MOLM-13 = tested on: MOLM-13
CHRF288-11 = tested on: CHRF288-11
MV4-11 = tested on: MV4-11
M07e = tested on: M07e
ML-2 = tested on: ML-2

Compound	U937 %inh (U937) [%]	CMS %inh (CMS) [%]	CMK %inh (CMK) [%]	MOLM-13 %inh (MOLM-13) [%]	CHRF288-11 %inh (CHRF288-11) [%]	MV4-11 %inh (MV4-11) [%]	M07e %inh (M07e) [%]	ML-2 %inh (ML-2) [%]	CMK %inh (CMK; CMK %inh, 10 µM) [%]	MOLM-13 %inh (MOLM-13; MOLM-13 %inh, 10 µM) [%]	CHRF288-11 %inh (CHRF288-11; CHRF288-11 %inh, 10 µM) [%]	MV4-11 %inh (MV4-11; MV4-11 %inh, 10 µM) [%]	M07e %inh (M07e; M07e %inh, 10 µM) [%]	ML-2 %inh (ML-2; ML-2 %inh, 10 µM) [%]	U937 %inh (U937; U937 %inh, 10 µM) [%]	CMS %inh (CMS; CMS %inh, 10 µM) [%]
O=c1c(-c2ccc(O)cc2)coc2cc(O)ccc12 [SJ000285588-6, DAIDZEIN]	-0.9488	-1.1	-0.373	-0.07438	1.05	0.1059	1.994	-1.236	–	–	–	–	–	–	–	–
CCCCC[C@H](CC(=O)NO)C(=O)N[C@H](C(=O)N1CCC[C@H]1CO)C(C)C [SJ000285589-6, ACTINONIN]	11.94	4.96	2.47	22.93	7.871	13.23	6.094	7.53	–	–	–	–	–	–	–	–
CCCCC1C(=O)N(c2ccccc2)N(c2ccc(O)cc2)C1=O (stereo not shown) [SJ000285591-4, OXYPHENBUTAZONE]	81.76	98.27	-9.457	-3.833	-1.743	79.54	119.6	63.81	–	–	–	–	–	–	–	–
CO[C@@]1(NC(=O)Cc2cccs2)C(=O)N2C(C(=O)O)=C(COC(N)=O)CS[C@@H]21 [SJ000285599-4, CEFOXITIN SODIUM]	-1.811	-1.051	1.325	3.83	-4.487	-5.193	-3.67	-2.877	–	–	–	–	–	–	–	–
CCCCNC(=O)NS(=O)(=O)c1ccc(C)cc1 [SJ000285613-7, TOLBUTAMIDE]	-1.884	0.8795	-3.705	-1.699	-1.378	0.676	-0.3777	1.608	–	–	–	–	–	–	–	–
CC(C)[N+](C)(CCC(C(N)=O)(c1ccccc1)c1ccccc1)C(C)C [SJ000285636-4, ISOPROPAMIDE IODIDE]	-1.123	-2.262	-6.961	19.61	8.188	-0.6779	2.458	-0.5962	–	–	–	–	–	–	–	–
COc1cccc(OC)c1C(=O)N[C@@H]1C(=O)N2[C@@H]1SC(C)(C)[C@@H]2C(=O)O [SJ000285650-3, METHICILLIN SODIUM]	1.642	-3.883	-1.148	-0.5712	120.3	-1.181	-0.3426	-0.07595	–	–	–	–	–	–	–	–
CN(C)[C@@H]1C(=O)C(C(N)=O)=C(O)[C@@]2(O)C(=O)C3=C(O)c4c(O)cccc4[C@@](C)(O)[C@H]3[C@H](O)[C@@H]12 [SJ000285682-4, OXYTETRACYCLINE | OXYTETRACYCLINE DIHYDRATE | OXYTETRACYCLINE HYDROCHLORIDE | OXYTETRACYCLINE (TERRAMYCIN)]	0.3352	0.1991	-2.364	3.957	25.02	-1.23	-0.1554	0.3169	–	–	–	–	–	–	–	–
Cn1c(=O)c2c(ncn2C)n(C)c1=O [SJ000285694-6, CAFFEINE]	-2.594	0.8967	-3.637	-2.617	-2.164	-1.738	4.484	0.4974	–	–	–	–	–	–	–	–
CCn1nc(C(=O)O)c(=O)c2cc3c(cc21)OCO3 [SJ000285711-7, CINOXACIN]	2.404	0.852	0.4853	1.821	0.6656	3.259	5.282	-1.975	–	–	–	–	–	–	–	–
CN(C)/N=N/c1[nH]cnc1C(N)=O [SJ000285718-4, DACARBAZINE]	1.118	-1.6	31.68	31.43	9.396	4.433	-1.918	-0.5509	–	–	–	–	–	–	–	–
C#C[C@]1(O)CC[C@H]2[C@@H]3CCC4=Cc5oncc5C[C@]4(C)[C@H]3CC[C@@]21C [SJ000285723-7, DANAZOL]	4.655	-0.3914	-0.5732	13.86	3.76	3.859	0.05908	0.4162	–	–	–	–	–	–	–	–
CC(=O)N(O)CCCCCNC(=O)CCC(=O)N(O)CCCCCNC(=O)CCC(=O)N(O)CCCCCN [SJ000285725-5, DEFEROXAMINE MESYLATE]	32.98	49.53	–	–	–	–	–	–	30.74	54.77	11.75	0.1216	9.207	13.98	–	–
C/C=C(/C(=C/C)c1ccc(O)cc1)c1ccc(O)cc1 [SJ000285735-4, DIENESTROL]	–	–	–	–	–	–	–	–	4.084	3.801	-2.974	-1.794	-0.9445	0.7684	2.437	-3.971
C/C=C(/C(=C/C)c1ccc(O)cc1)c1ccc(O)cc1 [SJ000285735-5, DIENESTROL]	–	–	–	–	–	–	–	–	33.82	17.84	-2.147	1.913	2.558	1.532	2.402	-2.72
CCN(CC)C(=O)N1CCN(C)CC1 [SJ000285736-4, DIETHYLCARBAMAZINE CITRATE]	2.79	-4.008	2.446	1.95	-2.146	2.119	-3.005	-1.11	–	–	–	–	–	–	–	–
O=C(O)c1cc(-c2ccc(F)cc2F)ccc1O [SJ000285738-4, DIFLUNISAL]	4.296	0.6702	-0.9892	1.208	-4.662	3.937	2.006	-0.2454	–	–	–	–	–	–	–	–
C[C@H]1O[C@@H](O[C@H]2[C@@H](O)C[C@H](O[C@H]3[C@@H](O)C[C@H](O[C@H]4CC[C@@]5(C)[C@H](CC[C@@H]6[C@@H]5C[C@@H](O)[C@]5(C)[C@@H](C7=CC(=O)OC7)CC[C@]65O)C4)O[C@@H]3C)O[C@@H]2C)C[C@H](O)[C@@H]1O [SJ000285739-5, DIGOXIN]	–	–	–	–	–	–	–	–	94.03	106.4	126.2	85.53	115.6	70.4	89.45	110.4
C[C@H]1O[C@@H](O[C@H]2[C@@H](O)C[C@H](O[C@H]3[C@@H](O)C[C@H](O[C@H]4CC[C@@]5(C)[C@H](CC[C@@H]6[C@@H]5C[C@@H](O)[C@]5(C)[C@@H](C7=CC(=O)OC7)CC[C@]65O)C4)O[C@@H]3C)O[C@@H]2C)C[C@H](O)[C@@H]1O [SJ000285739-6, DIGOXIN]	–	–	–	–	–	–	–	–	86.52	91.77	118.6	80.5	102.6	63.97	81.18	96.75
CN(C)CCOC(C)(c1ccccc1)c1ccccn1 (stereo not shown) [SJ000285751-7, DOXYLAMINE SUCCINATE]	-1.083	-0.1312	-1.167	4.161	11.69	-5.123	1.23	-0.5397	–	–	–	–	–	–	–	–
